According to US9540343B2 (Gilead Sciences, Inc., priority 2011, dated 2017):

Legend:
HIV-IIIb = test: Test A: Antiviral assay in MT4 cells; format: cell-based, HIV-1; conditions: MT-4 cells infected with HIV-IIIb, 5 days, CellTiter-Glo; for inhibition at 2 µM: Human immunodeficiency virus 1, IIIB, MT4, 120 h, read-out: % inhibition at 2 μM, percent inhibition of virus-induced cell killing, from dose response curve at 2 uM drug
in vitro = conditions: human, uninfected MT-4 cells, CC50 (nM), same protocol as Test A, CellTiter-Glo
How it was run: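 Cytoprotection read-out: CellTiter-Glo chemiluminescence after 5 days at 37 °C of HIV-IIIb-infected MT-4 cells (m.o.i. 0.003) with compound in 10-point 3-fold dilutions, quadruplicate, 10% FBS. Cytotoxicity (CC50) measured identically without virus.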

| SMILES | inhibition at 2 µM (HIV-IIIb) [%] | CC50 at 5 days (in vitro) [nM] | % inhibition at 2 μM (HIV-IIIb; percent inhibition of virus-induced cell killing, from dose response curve at 2 uM drug) [%] |
| --- | --- | --- | --- |
| NC(=O)c1cc(-c2cccnc2[C@H](Cc2cc(F)cc(F)c2)NC(=O)Cn2nc3c(c2C(F)(F)OCc2ccccn2)CCCC3)ccc1F [Example 143, (S)-5-(2-(1-(2-(3-(difluoro(pyridin-2-ylmethoxy)methyl)-4,5,6,7-tetrahydro-2H-indazol-2-yl)acetamido)-2-(3,5-difluorophenyl)ethyl)pyridin-3-yl)-2-fluorobenzamide] | 10 | 19900 |  |
| O=C(Cn1nc(C(F)(F)F)cc1C1CC1)N[C@@H](Cc1cc(F)cc(F)c1)c1ncccc1-c1cnc2[nH]ccc2c1 [Example 61F, (S)—N-(1-(3-(1H-pyrrolo[2,3-b]pyridin-5-yl)pyridin-2-yl)-2-(3,5-difluorophenyl)ethyl)-2-(5-cyclopropyl-3-(trifluoromethyl)-1H-pyrazol-1-yl)acetamide] | 74 | 17900 |  |
| NC(=O)c1cc(-c2cccnc2[C@H](Cc2cc(F)cc(F)c2)NC(=O)[C@@H]2C[C@H](c3ccccc3)CN2)ccc1F [Example 177, (2S,4R)—N—((S)-1-(3-(3-carbamoyl-4-fluorophenyl)pyridin-2-yl)-2-(3,5-difluorophenyl)ethyl)-4-phenylpyrrolidine-2-carboxamide] | 0 | 51700 |  |
| CC(=O)N1Cc2c(C(F)(F)F)nn(CC(=O)N[C@@H](Cc3cc(F)cc(F)c3)c3ncccc3-c3ccc(F)c(C(N)=O)c3)c2C1 [Example 219, (S)-5-(2-(1-(2-(5-acetyl-3-(trifluoromethyl)-5,6-dihydropyrrolo[3,4-c]pyrazol-1(4H)-yl)acetamido)-2-(3,5-difluorophenyl)ethyl)pyridin-3-yl)-2-fluorobenzamide] | 1 | > 53200 |  |
| Cn1ncc2ccc(-c3cccnc3[C@H](Cc3cc(F)cc(F)c3)NC(=O)Cn3nc(C(F)F)c4c3C(F)(F)C3CC43)cc21 (stereo partly drawn) [Example 73, (S)—N-(1-(3-(1-methylindazole-6-yl)-pyridin-2-yl)-2-(3,5-difluorophenyl)ethyl)-2-(3-(difluoromethyl)-5,6-dihydro-4,5-(methano)-6,6-difluoro-cyclopenta[c]pyrazol-1(4H)-yl)acetamide] | 15 | 9790 |  |
| CN(C)C(C(=O)N[C@@H](Cc1cc(F)cc(F)c1)c1ncccc1-c1ccc(F)c(C(N)=O)c1)c1ccc(F)cc1 (single isomer, unassigned) [Example 503] |  | 40400 | 3 |
| NC(=O)c1cc(-c2cccnc2[C@H](Cc2cc(F)cc(F)c2)NC(=O)Cc2c[nH]c3cc(F)c(F)cc23)ccc1F [Example 533E, (S)-5-(2-(1-(2-(5,6-difluoro-1H-indol-3-yl)acetamido)-2-(3,5-difluorophenyl)ethyl)pyridin-3-yl)-2-fluorobenzamide] | 142 | 19300 |  |
| NC(=O)c1cc(-c2cccnc2[C@H](Cc2cc(F)cc(F)c2)NC(=O)Cc2c[nH]c3ccc(O)cc23)ccc1F [Example 41, (S)-5-(2-(2-(3,5-difluorophenyl)-1-(2-(5-hydroxy-1H-indol-3-yl)acetamido)ethyl)pyridin-3-yl)-2-fluorobenzamide] | 97 | > 53000 |  |
| NC(=O)c1cccc(-c2cccnc2[C@H](Cc2cc(F)cc(F)c2)NC(=O)Cn2ccc3cnc(N)nc32)c1 [Example 226C, (S)-3-(2-(1-(2-(2-amino-7H-pyrrolo[2,3-d]pyrimidin-7-yl)acetamido)-2-(3,5-difluorophenyl)ethyl)pyridin-3-yl)benzamide] | 0 | > 53000 |  |
| O=C(Cn1nc(C(F)F)c2c1C(F)(F)C1CC21)N[C@@H](Cc1cc(F)cc(F)c1)c1ncccc1-c1ccc2[nH]ncc2c1 (stereo partly drawn) [Example 421, (S)—N-(1-(3-(indozol-5-yl)-pyridin-2-yl)-2-(3,5-difluorophenyl)ethyl)-2-(3-(difluoromethyl)-5,6-dihydro-4,5-(methano)-6,6-difluoro-cyclopenta[c]pyrazol-1(4H)-yl)acetamide] | 70 | 10200 |  |
